For this assay, the system named is BDF1 mice, P388 leukemia ip, median survival T/C. The assay is described as follows: NCI In Vivo Anticancer Drug Screen. Data for tumor model P388 Leukemia (intraperitoneal) in B6D2F1 (BDF1) mice. The conditions noted are these: endpoint: median survival time, higher = longer survival. A digest of the protocol:
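Reported as T/C, where T is the survival measurement in dosed animals and C the same measurement in vehicle controls.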

The mark [1] stands for this setting: dose: 100.0 mg/kg/injection, schedule: Q04DX003 (ip), vehicle: Klucel (hydroxypropylcellulose) (HPC).
Where [2] appears, read: dose: 100.0 mg/kg/injection, schedule: Q01DX009 (ip), vehicle: saline with Tween-80.
[3] abbreviates: dose: 200.0 mg/kg/injection, schedule: Q01DX009 (ip), vehicle: saline with Tween-80.
The mark [4] stands for this setting: dose: 400.0 mg/kg/injection, schedule: Q01DX009 (ip), vehicle: saline with Tween-80.
Where [5] appears, read: dose: 100.0 mg/kg/injection, schedule: Q04DX003 (ip), vehicle: saline with Tween-80.
Setting [6] is: dose: 200.0 mg/kg/injection, schedule: Q04DX003 (ip), vehicle: saline with Tween-80.
[7] abbreviates: dose: 400.0 mg/kg/injection, schedule: Q04DX003 (ip), vehicle: saline with Tween-80.
Setting [8] is: dose: 100.0 mg/kg/injection, schedule: Q01DX009 (ip), vehicle: Klucel (hydroxypropylcellulose) (HPC).
The mark [9] stands for this setting: dose: 200.0 mg/kg/injection, schedule: Q01DX009 (ip), vehicle: Klucel (hydroxypropylcellulose) (HPC).
Where [10] appears, read: dose: 200.0 mg/kg/injection, schedule: Q04DX003 (ip), vehicle: Klucel (hydroxypropylcellulose) (HPC).
Where [11] appears, read: dose: 400.0 mg/kg/injection, schedule: Q04DX003 (ip), vehicle: Klucel (hydroxypropylcellulose) (HPC).

Structures are written as SMILES. “And” between values parts separate entries of the source, which are not always exact repeats. Equal values may be shown once. Toxic doses and inconclusive results are not listed.

In the case of `CN(C)c1cc2nc[nH]c(=O)c2cc1[N+](=O)[O-]`, the T/C under setting [1] was 116 % of control.

Regarding `NC(Cc1cccs1)C(=O)O` (stereo not drawn), the T/C is 100 % of control under setting [2], 110 % of control under setting [3] and 110 % of control under setting [4].

`N#CCCC(C#N)(CCC#N)c1ccc([N+](=O)[O-])cc1`: the T/C was 92 % of control under setting [2]; 101 % of control under setting [5]; 92 % of control under setting [3]; 100 % of control under setting [6]; 92 % of control under setting [4]; 102 % of control under setting [7].

In the case of `C[C@]12CC[C@@H]3c4ccc(O)cc4CC[C@H]3[C@@H]1CCC(=O)O2`, the T/C was 91 % of control under setting [8]; 104 % of control under setting [1]; 91 % of control under setting [9]; 90 % of control under setting [10]; 100 % of control under setting [11].

Take `CC(=O)OC1(C)CC(C)(C)N=[N+]1[O-]` (stereo not drawn): the T/C reads like this: (dose: 12.5 mg/kg/injection, schedule: Q01DX005 (ip), vehicle: other) 103 % of control; (dose: 25.0 mg/kg/injection, schedule: Q01DX005 (ip), vehicle: other) 103 % of control; (dose: 50.0 mg/kg/injection, schedule: Q01DX005 (ip), vehicle: other) 121 % of control; (dose: 100.0 mg/kg/injection, schedule: Q01DX005 (ip), vehicle: other) 103 % of control; (dose: 200.0 mg/kg/injection, schedule: Q01DX005 (ip), vehicle: other) 109 % of control.

On to `CN(C)C(=O)CCCCC(=O)N(C)C`, for which the T/C by setting is: (dose: 1.0 mg/kg/injection, schedule: Q01DX001 (ip), vehicle: saline) 96 % of control; (dose: 2.0 mg/kg/injection, schedule: Q01DX001 (ip), vehicle: saline) 110 % of control; (dose: 4.0 mg/kg/injection, schedule: Q01DX001 (ip), vehicle: saline) 106 % of control; (dose: 8.0 mg/kg/injection, schedule: Q01DX001 (ip), vehicle: saline) 102 % of control; (dose: 16.0 mg/kg/injection, schedule: Q01DX001 (ip), vehicle: saline) 96 % of control; (dose: 32.0 mg/kg/injection, schedule: Q01DX001 (ip), vehicle: saline) 100 % of control. The T/C (dose: 64.0 mg/kg/injection, schedule: Q01DX001 (ip), vehicle: saline) was 95 % of control and the T/C (dose: 128.0 mg/kg/injection, schedule: Q01DX001 (ip), vehicle: saline) is 102 % of control.

As for `O=C(Nc1ccc(Cl)c(Cl)c1)Nc1cc(Cl)ccc1Sc1ccc(Cl)cc1S(=O)(=O)O`, the T/C reads like this: (dose: 25.0 mg/kg/injection, schedule: Q01DX009 (ip), vehicle: saline with Tween-80) 109 % of control; (dose: 50.0 mg/kg/injection, schedule: Q01DX009 (ip), vehicle: saline with Tween-80) 95 % of control; under setting [2], 90 % of control.

Regarding `O=CN(O)CC(=O)O.[Ni]`, the T/C is 90 % of control (dose: 1.56 mg/kg/injection, schedule: Q04DX003 (ip), vehicle: saline); 105 % of control (dose: 2.3 mg/kg/injection, schedule: Q01DX001 (ip), vehicle: saline); 120 % of control (dose: 3.12 mg/kg/injection, schedule: Q01DX009 (ip), vehicle: saline); 109 % of control (dose: 3.12 mg/kg/injection, schedule: Q04DX003 (ip), vehicle: saline); 115 % of control (dose: 6.25 mg/kg/injection, schedule: Q01DX009 (ip), vehicle: saline); 109 % of control (dose: 6.25 mg/kg/injection, schedule: Q04DX003 (ip), vehicle: saline). Also, the T/C reads like this: (dose: 9.2 mg/kg/injection, schedule: Q01DX001 (ip), vehicle: saline) 95 % of control; (dose: 9.2 mg/kg/injection, schedule: Q04DX003 (ip), vehicle: saline) 100 % of control; (dose: 13.0 mg/kg/injection, schedule: Q01DX001 (ip), vehicle: saline) 113 % of control; (dose: 13.0 mg/kg/injection, schedule: Q04DX003 (ip), vehicle: saline) 109 % of control; (dose: 14.0 mg/kg/injection, schedule: Q04DX003 (ip), vehicle: saline) 109 % of control; (dose: 20.0 mg/kg/injection, schedule: Q01DX001 (ip), vehicle: saline) 113 % of control. The T/C runs as follows: (dose: 21.0 mg/kg/injection, schedule: Q04DX003 (ip), vehicle: saline) 118 % of control; (dose: 30.0 mg/kg/injection, schedule: Q01DX001 (ip), vehicle: saline) 113 % of control; (dose: 30.0 mg/kg/injection, schedule: Q04DX003 (ip), vehicle: saline) 113 % of control.

As to `O=C1c2ccccc2C(=O)N1CNc1ccc(Cc2ccc(NCN3C(=O)c4ccccc4C3=O)c(Cl)c2)cc1Cl`, the T/C is, setting by setting: under setting [8], 100 % of control; under setting [1], 100 % of control; under setting [9], 100 % of control; under setting [10], 95 % of control; (dose: 400.0 mg/kg/injection, schedule: Q01DX009 (ip), vehicle: Klucel (hydroxypropylcellulose) (HPC)) 90 % of control; under setting [11], 95 % of control.

Regarding `CC(=O)Oc1cc(-c2ccccc2)c(OC(C)=O)cc1-c1ccccc1`, the T/C reads like this: (dose: 6.25 mg/kg/injection, schedule: Q01DX009 (ip), vehicle: water) 109 % of control; (dose: 12.5 mg/kg/injection, schedule: Q01DX009 (ip), vehicle: water) 95 % of control; (dose: 12.5 mg/kg/injection, schedule: Q04DX003 (ip), vehicle: water) 89 % of control; (dose: 25.0 mg/kg/injection, schedule: Q01DX009 (ip), vehicle: water) 93 % of control; (dose: 25.0 mg/kg/injection, schedule: Q04DX003 (ip), vehicle: water) 89 % of control and 95 % of control; (dose: 50.0 mg/kg/injection, schedule: Q01DX009 (ip), vehicle: water) 92 % of control. The T/C was 91 % of control and 98 % of control (dose: 50.0 mg/kg/injection, schedule: Q04DX003 (ip), vehicle: water); 94 % of control (dose: 100.0 mg/kg/injection, schedule: Q01DX009 (ip), vehicle: water); 89 % of control and 95 % of control (dose: 100.0 mg/kg/injection, schedule: Q04DX003 (ip), vehicle: water); 102 % of control (dose: 200.0 mg/kg/injection, schedule: Q01DX009 (ip), vehicle: water); 107 % of control (dose: 300.0 mg/kg/injection, schedule: Q01DX009 (ip), vehicle: water); 91 % of control (dose: 400.0 mg/kg/injection, schedule: Q01DX009 (ip), vehicle: water).

Take `Cc1ccnc(NS(=O)(=O)c2ccc(N=Nc3nc4[nH]c(N)nc(=S)c4[nH]3)cc2)n1`: the T/C (dose: 1.56 mg/kg/injection, schedule: Q01DX009 (ip), vehicle: Klucel (hydroxypropylcellulose) (HPC)) is 151 % of control; the T/C (dose: 3.12 mg/kg/injection, schedule: Q01DX009 (ip), vehicle: Klucel (hydroxypropylcellulose) (HPC)) was 112 % of control; the T/C (dose: 6.25 mg/kg/injection, schedule: Q01DX009 (ip), vehicle: Klucel (hydroxypropylcellulose) (HPC)) was 108 % of control.

Turning to `COc1cc(/C=N/N2CCCCC2)cc(OC)c1OC`, the T/C was 100 % of control under setting [2]; 100 % of control under setting [5]; 90 % of control under setting [3]; 100 % of control under setting [6]; 100 % of control under setting [4]; 90 % of control under setting [7].
